Measurements from a melting point compilation (Tetko et al.; mined from patent text by program, amines drawn as free bases though some values may be those of a salt).

With `CCOc1cc(C#N)ccc1C(=O)O` the melting point was 170 to 172 °C.
`O=c1c(-c2ccc(Cl)cc2)coc2cc(O)c(O)cc12` gave a melting point of 299 °C.
Compound `COc1ccc(C2CCN(c3c(C)c(C)c4c(c3C)C(c3ccsc3)C(C)(C)O4)CC2)cc1OC` (centres undefined) has a melting point of 111 to 113 °C.
`O=C(CC(F)=C(F)F)Nc1ccc(S(=O)(=O)O)cc1` gave a melting point greater than 300 °C.
Work on `Nc1cccc(Cc2nnn[nH]2)c1` yielded a melting point of 140 °C.
`O=C1c2ccccc2C(=O)N1C[C@@H](O)COc1ccc(Cl)cc1O` showed a melting point of 214 to 218 °C.
In the case of `O=C(OCc1ccc([N+](=O)[O-])cc1)C(=O)c1ccccc1C(=O)O`, the melting point is reported as 165 to 167 °C.
Compound `COc1c(N2CCC(n3cncn3)C2)c(F)cc2c(=O)c(C(=O)O)cn(C3CC3)c12` (centres undefined) has a melting point of 221 to 222 °C.
With `COc1cc(OC)cc(Sc2ccc([N+](=O)[O-])cc2)c1` the melting point was 63 to 65 °C.
`CC(=O)N1CCN(Cc2ccc(-c3cc4ncnc(Nc5ccc6[nH]ccc6c5)c4s3)cc2)CC1` showed a melting point of 163 to 180 °C.
In the case of `Cc1c(Cl)c2c(c3oc4ccccc4c(=O)c13)CC(C(=O)O)O2` (centres undefined), the melting point is reported as 284 to 287 °C.
Compound `CNC(=O)OC(C(Oc1ccc(Cl)cc1Cl)n1cncn1)C(C)(C)CF` (centres undefined) has a melting point of 124 to 127 °C.
For `CCC1(CC)OC(c2ccc(S(C)(=O)=O)cc2)=C(Br)C1=O`, the melting point was 130 to 131 °C.
For `CCCCSCC(=O)c1cc2sc(=O)[nH]c2cc1Cl`, the melting point was 102 to 115 °C.
Work on `CCC(=O)NCCC1CCc2ccn3nc(C)cc3c21` (centres undefined) yielded a melting point of 100 to 102 °C.
Work on `COc1nc(Nc2ccc(F)cc2F)c(C(=O)Cl)cc1F` yielded a melting point of 153 to 154 °C.
`CC(C)Cn1c(=O)n(C)c(=O)c2c(C/C=C/CC(=O)O)n(Cc3cccc4ccccc34)cc21` gave a melting point of 176 to 180 °C.
`COc1cc(Cl)c(C#N)cc1C(=O)O` gave a melting point of 100 to 102 °C.
`CS(=O)(=O)OCCC1(c2ccccc2)C=CCC=C1` showed a melting point of 64 to 65 °C.
For `CCn1nc(C(C)(F)F)nc1Cc1ccc(-c2ccccc2-c2nnn[nH]2)nc1`, the melting point was 103 to 104 °C.
In the case of `CCCCC(=O)NCCC(=O)O`, the melting point is reported as 73 to 76 °C.
For `COC(=O)C(=O)c1ccccc1Oc1cc(Oc2ccccc2C#N)ncn1`, the melting point was 96 to 97 °C.
`O=S(=O)(c1ccncc1)C1CCNCC1` showed a melting point of 88 to 91 °C.
`CN(C)c1nc(N(C)C)c2nnn(Cc3ccccc3F)c2n1` showed a melting point of 123 to 125 °C.
For `CS(=O)(=O)c1ccc(-c2ccc(C=O)n2-c2ccc(F)cc2)cc1`, the melting point was 111 to 112 °C.
With `Cn1c(C#N)c(F)n(-c2ccc(Cl)cc2)c1=O` the melting point was 105 °C.
Compound `CCCCCCCCc1cnc(-c2ccc(OC)c(F)c2)nc1` has a melting point of 58.7 to 59 °C.
Compound `Cc1cc(C2=C(c3cccc(F)c3)C(=O)C(C)(C)O2)ccc1S(C)(=O)=O` has a melting point of 138 to 139 °C.
`CSc1ncc2c(n1)Nc1ccccc1-n1nnnc1-2` showed a melting point of 244 to 246 °C.
In the case of `O=C(Cc1ccc(Cl)cc1)Nc1cccc2nc(N[C@@H]3CCc4ccccc43)ccc12`, the melting point is reported as 170 °C.
Work on `COC(=O)c1cc2c3cc(Cl)ccc3n(C)c2s1` yielded a melting point of 188 to 190 °C.
With `CCn1ncc2c3onc(-c4ccc(Cl)cc4)c3cnc21` the melting point was 195 to 197 °C.
Compound `O=C(NCCc1ccccc1)c1ccccc1-c1ccccc1CN1C(=O)c2ccccc2C1=O` has a melting point of 156 °C.
`CCOP(=O)(OCC)c1cc2cc(N)c(Cl)cc2[nH]c1=O` showed a melting point of 255 to 260 °C.
For `CCCCOc1ccc(NS(=O)(=O)c2ccc(N3CCNC3=O)cc2)cc1`, the melting point was 223 to 225 °C.
Work on `COc1cc(OC)c2c(=O)[nH]c(-c3ccc(OCCO)c(-c4ccccc4)n3)nc2c1` yielded a melting point of 240 to 242 °C.
In the case of `Cc1c(F)cc(O)c2c(=O)c(C(=O)O)cn([C@@H]3C[C@@H]3F)c12`, the melting point is reported as 209 to 213 °C.
With `O=C(NCCc1ccccc1Cl)c1ccccc1` the melting point was 70.1 to 71 °C.
Compound `Oc1ccc(-c2cc3ccccc3cn2)cc1` has a melting point of 218 to 219 °C.
With `Nc1cccc(C(CC2CCCC2)C(=O)Nc2nccs2)c1` (centres undefined) the melting point was 158 to 160 °C.
Work on `O=C(CCC(=O)c1ccccc1)NC1CNCCO1` (centres undefined) yielded a melting point of 87 to 89 °C.
`Cc1ccc(Cl)cc1N1C(=O)C(=O)N(C)C1=S` gave a melting point of 171 to 173 °C.
With `Cc1cc(C)c2nc(NCCCN3CCOCC3)n(Cc3nc(C)ccc3O)c2c1` the melting point was 228 °C.
For `COC(=O)c1ccc2c(c1)NC(=O)C(CCO)O2` (centres undefined), the melting point was 167 to 169 °C.
Compound `COc1ccc(C(=O)c2c(-c3ccccc3)oc3ccc([N+](=O)[O-])cc23)cc1` has a melting point of 153 °C.
In the case of `Nc1c(Cl)cc(C(O)CNCCCCCC(=O)OCCOc2ccccc2)cc1Cl` (centres undefined), the melting point is reported as 46 to 47 °C.
In the case of `CCN1C(=O)C(C)(C)C(=O)N(C)c2cc(CN(CCn3ccc4oc(COC)cc4c3=O)Cc3cccnc3C)ccc21`, the melting point is reported as 123 to 126 °C.
With `CCc1cc2c(cc1C(C)=O)CC(NC(=O)C(F)(F)F)C2` (centres undefined) the melting point was 124 to 127 °C.
Work on `O=C(O)COc1cccc2c1CCc1sc(Cc3ccccc3)nc1-2` yielded a melting point of 146 to 149 °C.
Compound `Cc1cccc(C)c1NC(=O)c1ccc(Cl)nc1` has a melting point of 165 to 166 °C.
Work on `CN(C)c1cc2ccc(OCc3ccccc3)cc2s1` yielded a melting point of 78 to 81 °C.
With `COC(=O)CCON1C(C)(C)CC(OCc2ccc(COC3CC(C)(C)N(OCCC(=O)OC)C(C)(C)C3)cc2)CC1(C)C` the melting point was 84 to 85 °C.
With `COc1c(F)cc2c(O)c(C(=O)NCc3ccc(Cl)cc3)cnc2c1F` the melting point was 217 to 219 °C.
`CCS(=O)(=O)C1=NCN(S(=O)(=O)CC)S1` showed a melting point of 42 °C.
In the case of `COCc1cc2ccccc2c(Oc2ccc(/C=C/C(=O)O)cc2)c1-c1ccccc1`, the melting point is reported as 76 to 79 °C.
For `COc1ccc(NC(=O)c2csc(Br)c2OC)cc1N1CCN(C)CC1`, the melting point was 120 to 122 °C.
For `S=C1CSc2cc(Cl)ccc2N1`, the melting point was 202 to 204 °C.
In the case of `CC1CCCNC(=O)C1` (centres undefined), the melting point is reported as 87 to 100 °C.
In the case of `COc1ccccc1N(CC(=O)N(C)c1ccccc1)C(=O)CN1C(=O)c2ccccc2C1=O`, the melting point is reported as 199 °C.
Work on `COc1ccc(C(=O)C2C(=O)c3cccc(NC(=O)Oc4ccccc4)c3C2=O)cc1` (centres undefined) yielded a melting point of 256 to 258 °C.
`COc1cccc(C=CCC(=O)O)c1OC` showed a melting point of 84 to 86 °C.
For `CC(CNC(=O)c1ccc(N2CCC(N3C(=O)C(F)(F)c4ccccc43)CC2)nn1)C1CC1` (centres undefined), the melting point was 51 to 53 °C.
`CCCCCCC(O)CNCCO` (centres undefined) gave a melting point of 45 °C.
With `COC(=O)C1=C(C)NC(C)=C(C(=O)O)C1c1ccccc1` (single isomer, unassigned; (-)) the melting point was 158 to 159 °C.
In the case of `CNc1cc(Oc2ccc(NC(=O)Nc3ccc(-c4cccnc4)c(C(F)(F)F)c3)cc2)ncn1`, the melting point is reported as 118 to 123 °C.
Compound `CCc1c(S(=O)(=O)c2ccc(O)cc2)cnn1C` has a melting point of 188 to 190 °C.
`CS(=O)(=O)Nc1cc2c(cc1Oc1ccc(F)cc1F)C(=O)CC2c1ccccc1` (centres undefined) showed a melting point of 101 °C.
For `CC(C)(c1ccc2ncccc2c1)n1nnc2ccc(-c3ccc(C(N)=O)c(F)c3)nc21`, the melting point was 127 to 130 °C.
With `COC(=O)c1ccc2cc(OC(=S)N(C)C)ccc2c1` the melting point was 144 to 147 °C.
`CCOC(=O)c1c(N2CCN(C(=O)c3cccs3)CC2)c2cccnc2n(CC(=O)c2ccccc2)c1=O` gave a melting point of 115 °C.
In the case of `S=c1nc2c(-c3ccccc3)cccn2c(=S)n1-c1ncccc1-c1ccccc1`, the melting point is reported as 90 to 92 °C.
`COc1ccc(S(=O)c2ccccc2)cc1N` (centres undefined) showed a melting point of 113 to 115 °C.
`Fc1ccc([C@@H]2Cc3cnc(Nc4ccc(CCN5CCCCC5)cc4)nc3-c3ccccc32)cc1` gave a melting point of 185 to 188 °C.
Compound `CNc1cc(Nc2ccc(OC)cc2)ncn1` has a melting point of 174 to 182 °C.
For `CCCCOC(=O)c1nc(Cl)c2ccc(OC(C)C)cc2c1O`, the melting point was 116 to 118 °C.
Compound `CCOC(=O)c1ccc(NCCCOc2cccc3ccccc23)cc1` has a melting point of 93 to 94 °C.
In the case of `COc1cc2c(cc1-c1ccccc1)CCCc1c-2nc2ccc(F)cc2c1C(=O)O`, the melting point is reported as greater than 300 °C.
`Cc1nn(CC(=O)COCc2ccccc2)c(-c2ccc(F)cc2)c1-c1ccc2c(c1)NC(=O)CO2` showed a melting point of 154 to 155 °C.
`CC(C)(C)OC(=O)N1C(C(=O)O)CSC1c1cccnc1` (centres undefined) gave a melting point of 167 to 169 °C.
For `C[C@H](Cc1ccc2oc(C(=O)O)cc2c1)NC[C@H](O)c1csc(C(F)(F)F)n1`, the melting point was 168 to 171 °C.
Compound `COc1ccc(C=C(Br)Br)cc1O` has a melting point of 94 to 95 °C.
For `CN(C)c1c(-c2ccccc2)sc2ccccc12`, the melting point was 84 to 86 °C.
`CCCCc1cn(Cc2ccc(C(=O)O)cc2)c2ccccc2c1=O` gave a melting point of 224 °C.
Compound `COc1ccc(-c2csc(N(C)c3cc4ccccc4cn3)n2)cc1OC` has a melting point of 165 to 166 °C.
`O=c1[nH]c(-c2ccccc2)c(F)c(=O)n1-c1ccc(OC(F)(F)F)cc1` gave a melting point of 295 to 303 °C.
With `CO/N=C(\C(=O)OC)c1csc(O)n1` the melting point was 97 to 98 °C.
With `CNc1cn(-c2cncc(F)c2)nc1Cl` the melting point was 118 to 119 °C.
With `COc1ccc(F)c2c1C(=O)c1ccncc1C2=O` the melting point was greater than 220 °C.
`COc1ccc(CSc2nc(O)cc(C(F)(F)F)n2)cc1` gave a melting point of 169 to 170 °C.
Work on `C=CCCCn1c(=O)sc2c(=O)[nH]c(N)nc21` yielded a melting point of 240 to 243 °C.
Work on `C(=Cc1ccc(-c2ccc(C=Cc3ccccc3)cc2)cc1)c1ccccc1` yielded a melting point of 323 to 325 °C.
`CC(=O)C1=CCC2C3CCC4CC(OS(=O)(=O)c5ccc(C)cc5)CCC4(C)C3C(=O)CC12C` (centres undefined) gave a melting point of 147 to 151 °C.
Work on `O=C(c1ccc(I)cc1)c1ccc2[nH]c(=O)cc(-c3cccc(Cl)c3)c2c1` yielded a melting point of 251 °C.
Work on `COc1ccc(-n2nc(CCCO)c(Cl)c2-c2ccc(Cl)cc2)cc1` yielded a melting point of 113 to 115 °C.
With `Cc1c(CC(=O)NCCO)cc(-c2ccc(S(C)(=O)=O)cc2)n1-c1ccc(F)cc1` the melting point was 99 °C.
Compound `O=C1Nc2ccccc2SC1CO` (centres undefined) has a melting point of 156 to 157 °C.
In the case of `CC(C)C[C@H](NC(=O)CCSC(=O)c1ccccc1)C(=O)O`, the melting point is reported as 99 to 101 °C.
`CC(=O)NCCC1(C[N+](=O)[O-])CCCCC1` gave a melting point of 68 to 70 °C.
With `O=C1OCCN1CCN1CCN(C2Cc3cc(Cl)ccc3Oc3ccc(F)cc32)CC1` (centres undefined) the melting point was 180 to 182 °C.
For `COCCNC(=O)c1ccc2c(c1)C=CC(C)(C)O2`, the melting point was 57 to 60 °C.
`COc1cccc2c(=O)c(SC)coc12` gave a melting point of 113 to 115 °C.
In the case of `COc1cc2c(c(Cl)c1Cl)C(=O)C(C)(c1ccc(F)cc1)C2` (centres undefined), the melting point is reported as 163 to 170 °C.
`COC(=O)c1ccc(C#Cc2ccccc2)cc1` showed a melting point of 114 °C.
For `O=C(O)Cc1ccc(Cc2ccccc2CC(=O)O)cc1`, the melting point was 155 to 156 °C.
